Measured values taken from PMC9709698 (Journal of Molecular Structure, 2022).

Columns and labels:
NRC-03-nhCoV = assay: Antiviral activity; format: cell-based, SARS-CoV-2; settings: CC50 Vero-E6 / IC50 NRC-03-nhCoV
SARS-CoV-2 = assay: Plaque infectivity reduction assay; format: cell-based; settings: for inhibition at 62.5 µM: Severe acute respiratory syndrome coronavirus 2, read-out: Virus inhibition% Adsorption, 62.5 µM; for inhibition at 125 µM: Severe acute respiratory syndrome coronavirus 2, read-out: Virus inhibition% Adsorption, 125 µM

Compound: O=C(CSc1nc2ccccc2c(=O)[nH]1)Nc1ccccc1C(=O)O [Compound 11a, 2-(2-((4-Oxo-3,4-dihydroquinazolin-2-yl)thio)acetamido)benzoic acid]
- SI (selectivity index) [CC50/IC50] (NRC-03-nhCoV): 4.3

Compound: O=C(CSc1nc2ccccc2c(=O)[nH]1)Nc1cccc(C(=O)O)c1 [Compound 11b, 3-(2-((4-Oxo-3,4-dihydroquinazolin-2-yl)thio)acetamido)benzoic acid]
- SI (selectivity index) [CC50/IC50] (NRC-03-nhCoV): 4.9

Compound: O=C(CSc1nc2ccccc2c(=O)[nH]1)Nc1ccc(C(=O)O)cc1 [Compound 11c, 4-(2-((4-Oxo-3,4-dihydroquinazolin-2-yl)thio)acetamido)benzoic acid]
- SI (selectivity index) [CC50/IC50] (NRC-03-nhCoV): 5.6

Compound: O=C(CSc1nc2c(c(=O)[nH]1)CCCC2)Nc1ccccc1C(=O)O [Compound 12a, 2-(2-((4-Oxo-3,4,5,6,7,8-hexahydroquinazolin-2-yl)thio)acetamido)benzoic acid]
- SI (selectivity index) [CC50/IC50] (NRC-03-nhCoV): 2.5

Compound: O=C(CSc1nc2c(c(=O)[nH]1)CCCC2)Nc1cccc(C(=O)O)c1 [Compound 12b, 3-(2-((4-Oxo-3,4,5,6,7,8-hexahydroquinazolin-2-yl)thio)acetamido)benzoic acid]
- SI (selectivity index) [CC50/IC50] (NRC-03-nhCoV): 0.98

Compound: O=C(CSc1nc2c(c(=O)[nH]1)CCCC2)Nc1ccc(C(=O)O)cc1 [Compound 12c, 4-(2-((4-Oxo-3,4,5,6,7,8-hexahydroquinazolin-2-yl)thio)acetamido)benzoic acid]
- SI (selectivity index) [CC50/IC50] (NRC-03-nhCoV): 0.63

Compound: O=C(CSc1nc2ccccc2c(=O)[nH]1)NNC(=O)c1ccccc1 [Compound 17a, N'-(2-((4-Oxo-3,4-dihydroquinazolin-2-yl)thio)acetyl)benzohydrazide]
- SI (selectivity index) [CC50/IC50] (NRC-03-nhCoV): 0.59

Compound: Cc1ccc(C(=O)NNC(=O)CSc2nc3ccccc3c(=O)[nH]2)cc1 [Compound 17b, 4-Methyl-N'-(2-((4-oxo-3,4-dihydroquinazolin-2-yl)thio)acetyl)benzohydrazide]
- SI (selectivity index) [CC50/IC50] (NRC-03-nhCoV): 2.14

Compound: O=C(CSc1nc2ccccc2c(=O)[nH]1)NNC(=O)c1ccc([N+](=O)[O-])cc1 [Compound 17c, 4-Nitro-N'-(2-((4-oxo-3,4-dihydroquinazolin-2-yl)thio)acetyl)benzohydrazide]
- SI (selectivity index) [CC50/IC50] (NRC-03-nhCoV): 2.61

Compound: COc1ccccc1C(=O)NNC(=O)CSc1nc2ccccc2c(=O)[nH]1 [Compound 17d, 2-Methoxy-N'-(2-((4-oxo-3,4-dihydroquinazolin-2-yl)thio)acetyl)benzohydrazide]
- SI (selectivity index) [CC50/IC50] (NRC-03-nhCoV): 0.4

Compound: O=C(CSc1nc2ccccc2c(=O)[nH]1)NNC(=O)c1ccccc1Cl [Compound 17e, 2-Chloro-N'-(2-((4-oxo-3,4-dihydroquinazolin-2-yl)thio)acetyl)benzohydrazide]
- SI (selectivity index) [CC50/IC50] (NRC-03-nhCoV): 0.24

Compound: O=C(CSc1nc2ccccc2c(=O)[nH]1)NNC(=O)c1ccc(Cl)cc1 [Compound 17f, 4-Chloro-N'-(2-((4-oxo-3,4-dihydroquinazolin-2-yl)thio)acetyl)benzohydrazide]
- SI (selectivity index) [CC50/IC50] (NRC-03-nhCoV): 4.3

Compound: O=C(CSc1nc2ccccc2c(=O)[nH]1)NNC(=O)c1ccccc1Br [Compound 17g, 2-Bromo-N'-(2-((4-oxo-3,4-dihydroquinazolin-2-yl)thio)acetyl)benzohydrazide]
- SI (selectivity index) [CC50/IC50] (NRC-03-nhCoV): 8.64
- inhibition at 62.5 µM (SARS-CoV-2): 26.7 ± 6.65%
- inhibition at 125 µM (SARS-CoV-2): 29.6 ± 8.3%

Compound: O=C(CSc1nc2c(c(=O)[nH]1)CCCC2)NNC(=O)c1ccccc1 [Compound 18a, N'-(2-((4-oxo-3,4,5,6,7,8-hexahydroquinazolin-2-yl)thio)acetyl)benzohydrazide]
- SI (selectivity index) [CC50/IC50] (NRC-03-nhCoV): 1.68

Compound: Cc1ccc(C(=O)NNC(=O)CSc2nc3c(c(=O)[nH]2)CCCC3)cc1 [Compound 18b, 4-Methyl-N'-(2-((4-oxo-3,4,5,6,7,8-hexahydroquinazolin-2-yl)thio)acetyl)benzohydrazide]
- SI (selectivity index) [CC50/IC50] (NRC-03-nhCoV): 4.43

Compound: O=C(CSc1nc2c(c(=O)[nH]1)CCCC2)NNC(=O)c1ccc([N+](=O)[O-])cc1 [Compound 18c, 4-Nitro-N'-(2-((4-oxo-3,4,5,6,7,8-hexahydroquinazolin-2-yl)thio)acetyl)benzohydrazide]
- SI (selectivity index) [CC50/IC50] (NRC-03-nhCoV): 10.67
- inhibition at 62.5 µM (SARS-CoV-2): 28.9 ± 10.2%
- inhibition at 125 µM (SARS-CoV-2): 44.4 ± 3.87%

Compound: COc1ccccc1C(=O)NNC(=O)CSc1nc2c(c(=O)[nH]1)CCCC2 [Compound 18d, 2-Methoxy-N'-(2-((4-oxo-3,4,5,6,7,8-hexahydroquinazolin-2-yl)thio)acetyl)benzohydrazide]
- SI (selectivity index) [CC50/IC50] (NRC-03-nhCoV): 2.95

Compound: O=C(CSc1nc2c(c(=O)[nH]1)CCCC2)NNC(=O)c1ccccc1Cl [Compound 18e, 2-Chloro-N'-(2-((4-oxo-3,4,5,6,7,8-hexahydroquinazolin-2-yl)thio)acetyl)benzohydrazide]
- SI (selectivity index) [CC50/IC50] (NRC-03-nhCoV): 1.14

Compound: O=C(CSc1nc2c(c(=O)[nH]1)CCCC2)NNC(=O)c1ccc(Cl)cc1 [Compound 18f, 4-Chloro-N'-(2-((4-oxo-3,4,5,6,7,8-hexahydroquinazolin-2-yl)thio)acetyl)benzohydrazide]
- SI (selectivity index) [CC50/IC50] (NRC-03-nhCoV): 16.04
- Virus inhibition% Virucidal (SARS-CoV-2; 125 µM): 53.3 ± 3.35%
- inhibition at 62.5 µM (SARS-CoV-2): 13.3 ± 3.35%
- inhibition at 125 µM (SARS-CoV-2): 20 ± 3.3%

Compound: O=C(CSc1nc2c(c(=O)[nH]1)CCCC2)NNC(=O)c1ccccc1Br [Compound 18g, 2-Bromo-N'-(2-((4-oxo-3,4,5,6,7,8-hexahydroquinazolin-2-yl)thio)acetyl)benzohydrazide]
- SI (selectivity index) [CC50/IC50] (NRC-03-nhCoV): 5.23
